The target in assay [1] is wild-type human CRBN protein (Homo sapiens, UniProt Q96SW2). In words: biochemical.
Method: The binding to cereblon (CRBN) was determined using the Cereblon Binding Kit (Cisbio, #64BDCRBNPEG) following the manufacturer's instruction. Briefly, serially diluted compounds were incubated with GST-tagged wild-type human CRBN protein, XL665-labelled Thalidomide and Europium Cryptate labelled GST antibody at room temperature for about 3 hours.
The target of assay [2] is T1, IKZF2 (Homo sapiens, UniProt Q96SW2+Q9UKS7).
T1 construct: host or cells: Jurkat-IKZF2-HiBiT
As to the kind of experiment: IKZF2 HiBiT degradation assay (Jurkat-IKZF2-HiBiT). The class given is cell-based. The protocol: Degradation of IKZF2 protein was determined by IKZF2 HiBiT assay using the Jurkat-IKZF2-HiBiT (Promega) cell line. […] Compounds were serially diluted in culture medium, and 20 μl of the diluted compounds were added to the appropriate wells of the plate. After the addition of compounds, the cells were incubated at 37° C. in an atmosphere of 5% CO2 for 24 hours. At the end of treatment, 40 ul of Nano-Glo HiBiT Lytic Detection Reagent (Promega) was added to each well, and then the plates were incubated at room temperature for 10-20 minutes. The luminescent signal was measured using a CALRIOstar plate reader (BMG Labtech). The readings were normalized to the DMSO-treated cells and the IC50 was calculated by nonlinear regression (four parameters sigmoid fitted with variable slope, least squares fit, and no constraint) analysis using the GraphPad Prism 8 software.
For orientation: With HiBiT, luminescence reflects the tagged protein that the partner subunit can reach.

SMILES strings stand for the structures. Counter-ions that a name gives are not always drawn.

wild-type human CRBN protein, sequence (Q96SW2 whole entry): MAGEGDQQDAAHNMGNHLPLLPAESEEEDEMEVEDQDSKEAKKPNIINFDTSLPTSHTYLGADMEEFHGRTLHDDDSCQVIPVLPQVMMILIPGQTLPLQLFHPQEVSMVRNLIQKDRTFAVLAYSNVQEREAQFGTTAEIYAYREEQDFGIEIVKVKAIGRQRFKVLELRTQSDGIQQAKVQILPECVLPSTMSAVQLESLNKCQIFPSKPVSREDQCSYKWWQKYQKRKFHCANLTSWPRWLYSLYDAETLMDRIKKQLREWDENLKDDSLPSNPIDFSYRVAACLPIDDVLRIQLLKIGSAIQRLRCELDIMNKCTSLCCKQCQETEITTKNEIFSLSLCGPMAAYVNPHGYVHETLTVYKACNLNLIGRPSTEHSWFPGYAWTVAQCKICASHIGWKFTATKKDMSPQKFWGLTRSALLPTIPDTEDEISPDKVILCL
T1 sequence (Q9UKS7 whole entry): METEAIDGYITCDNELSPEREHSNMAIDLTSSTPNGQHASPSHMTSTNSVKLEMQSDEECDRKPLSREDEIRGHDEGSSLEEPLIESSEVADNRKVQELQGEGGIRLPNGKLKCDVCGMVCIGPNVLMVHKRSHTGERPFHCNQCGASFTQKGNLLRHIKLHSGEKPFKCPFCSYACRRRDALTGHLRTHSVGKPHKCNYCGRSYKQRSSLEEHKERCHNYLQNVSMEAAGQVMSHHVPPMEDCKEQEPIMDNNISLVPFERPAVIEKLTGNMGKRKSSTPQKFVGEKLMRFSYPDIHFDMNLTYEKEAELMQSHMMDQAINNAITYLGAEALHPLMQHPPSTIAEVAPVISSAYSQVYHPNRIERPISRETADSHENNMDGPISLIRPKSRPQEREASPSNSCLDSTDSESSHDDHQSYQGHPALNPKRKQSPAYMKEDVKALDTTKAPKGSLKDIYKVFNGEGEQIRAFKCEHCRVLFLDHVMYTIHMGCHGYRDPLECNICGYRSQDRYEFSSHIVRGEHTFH
T1 sequence (Q96SW2 whole entry): as the sequence (Q96SW2 whole entry) above
T1 sequence (Q16531 2-1140 partner limits assumed): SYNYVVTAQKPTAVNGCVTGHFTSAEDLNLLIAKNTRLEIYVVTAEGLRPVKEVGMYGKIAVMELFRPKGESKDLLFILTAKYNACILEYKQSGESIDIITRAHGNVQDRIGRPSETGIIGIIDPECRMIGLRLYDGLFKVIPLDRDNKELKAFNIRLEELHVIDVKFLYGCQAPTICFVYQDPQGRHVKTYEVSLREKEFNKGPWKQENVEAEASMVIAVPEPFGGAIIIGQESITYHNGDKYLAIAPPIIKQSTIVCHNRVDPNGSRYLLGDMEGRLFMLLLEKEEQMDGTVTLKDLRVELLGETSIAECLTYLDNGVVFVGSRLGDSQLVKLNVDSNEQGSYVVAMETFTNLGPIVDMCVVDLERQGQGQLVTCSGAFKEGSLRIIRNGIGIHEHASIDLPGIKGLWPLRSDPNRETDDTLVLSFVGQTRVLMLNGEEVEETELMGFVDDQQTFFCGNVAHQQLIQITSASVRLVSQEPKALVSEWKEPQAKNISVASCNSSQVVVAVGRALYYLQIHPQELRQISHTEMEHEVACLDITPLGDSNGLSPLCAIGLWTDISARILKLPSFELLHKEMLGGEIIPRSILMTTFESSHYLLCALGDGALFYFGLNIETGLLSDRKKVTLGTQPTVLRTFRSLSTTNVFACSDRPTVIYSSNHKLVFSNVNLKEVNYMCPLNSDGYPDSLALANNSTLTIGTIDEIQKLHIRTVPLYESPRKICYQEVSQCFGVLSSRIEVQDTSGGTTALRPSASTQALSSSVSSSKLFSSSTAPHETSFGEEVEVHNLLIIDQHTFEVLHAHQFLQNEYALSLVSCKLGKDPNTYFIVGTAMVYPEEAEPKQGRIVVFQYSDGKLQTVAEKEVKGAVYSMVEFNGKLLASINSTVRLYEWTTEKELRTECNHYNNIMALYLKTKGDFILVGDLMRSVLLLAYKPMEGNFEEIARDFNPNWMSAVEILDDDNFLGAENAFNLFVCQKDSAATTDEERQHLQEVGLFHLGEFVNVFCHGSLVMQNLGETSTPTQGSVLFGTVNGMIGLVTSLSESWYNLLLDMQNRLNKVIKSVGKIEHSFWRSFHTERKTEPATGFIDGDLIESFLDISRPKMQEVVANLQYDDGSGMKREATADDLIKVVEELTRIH

`CC(C)(C)OC(=O)N1CCN2c3cc4c(cc3OC[C@@H]2C1)C(=O)N([C@@H]1CCC(=O)NC1=O)C4` [Compound B4, (R)-tert-butyl (4aS)-9-(2,6-dioxopiperidin-3-yl)-8-oxo-1,2,4a,5,9,10-hexahydro-8H-pyrazino[1′,2′:4,5][1,4]oxazino[2,3-f]isoindole-3(4H)-carboxylate] displayed an IC50 in assay [1] of 3500 nM. That is a single-digit micromolar value. Consider `CN1CCN2c3cc4c(cc3OC[C@@H]2C1)C(=O)N(C1CCC(=O)NC1=O)C4` (stereo partly drawn) [Compound B5, 3-((S)-3-methyl-8-oxo-1,2,3,4,4a,5,8,10-octahydro-9H-pyrazino[1′,2′:4,5][1,4]oxazino[2,3-f]isoindol-9-yl)piperidine-2,6-dione], for which the IC50 in assay [1] was 920 nM. This IC50 lies about 3.8-fold lower than the previous one. As for `O=C1CCC(N2Cc3cc4c(cc3C2=O)OC[C@H]2CNCCN42)C(=O)N1` (stereo partly drawn) [Compound B6, 3-((R)-8-oxo-1,2,3,4,4a,5,8,10-octahydro-9H-pyrazino[1′,2′:4,5][1,4]oxazino[2,3-f]isoindol-9-yl)piperidine-2,6-dione trifluoroacetate salt], the IC50 in assay [1] worked out at 3100 nM. `CN1C[C@@H]2CNCCN2c2cc3c(cc21)C(=O)N(C1CCC(=O)NC1=O)C3` (stereo partly drawn) [Compound B7, 3-((S)-6-methyl-8-oxo-2,3,4,4a,5,6,8,10-octahydropyrazino[1,2-a]pyrrolo[3,4-g]quinoxalin-9(1H)-yl)piperidine-2,6-dione trifluoroacetate salt] yielded a concentration for half-maximal inhibition (IC50) in assay [1] of 740 nM.

As for `CN1CCN2c3cc4c(cc3N(C)C[C@@H]2C1)C(=O)N(C1CCC(=O)NC1=O)C4` (stereo partly drawn) [Compound B8, 3-((S)-3,6-dimethyl-8-oxo-2,3,4,4a,5,6,8,10-octahydropyrazino[1,2-a]pyrrolo[3,4-g]quinoxalin-9(1H)-yl)piperidine-2,6-dione], the concentration for half-maximal inhibition (IC50) in assay [1] amounted to 940 nM.

As for `CN1CCN2c3cc4c(cc3NC(=O)[C@@H]2C1)C(=O)N(C1CCC(=O)NC1=O)C4` (stereo partly drawn) [Compound B10, (4aS)-9-(2,6-dioxopiperidin-3-yl)-3-methyl-2,3,4,4a,9,10-hexahydropyrazino[1,2-a]pyrrolo[3,4-g]quinoxaline-5,8(1H,6H)-dione], in assay [1], the midpoint of inhibition, the IC50, lay at 600 nM. With `CN1CCN2c3ccc4c(c3N(C)C[C@@H]2C1)CN(C1CCC(=O)NC1=O)C4=O` (stereo partly drawn) [Compound B12, 3-((S)-4,7-dimethyl-1-oxo-3,4,5,5a,6,7,8,9-octahydropyrazino[1,2-a]pyrrolo[3,4-f]quinoxalin-2(1H)-yl)piperidine-2,6-dione], the IC50 in assay [1] was 580 nM. This IC50 and that of the molecule before are within 1.5-fold of each other. As for `N[C@H]1C[C@H]2COc3cc4c(cc3N2C1)CN([C@H]1CCC(=O)NC1=O)C4=O` [Compound B17, (S)-3-((2S,3aS)-2-amino-7-oxo-2,3,3a,4,7,9-hexahydro-1H,8H-pyrrolo[1′,2′:4,5][1,4]oxazino[2,3-f]isoindol-8-yl)piperidine-2,6-dione], in assay [1], the IC50 was 130 nM.

As to `N[C@H]1C[C@H]2COc3cc4c(cc3N2C1)C(=O)N(C1CCC(=O)NC1=O)C4=O` (stereo partly drawn) [Compound B18], in assay [1], the IC50 came to 220 nM. With `O=C1CC[C@H](NC(=O)c2ccc3c(n2)OC[C@H]2CNCCN32)C(=O)N1` [Compound B19, (R)-N-((S)-2,6-dioxopiperidin-3-yl)-1,2,3,4,4a,5-hexahydropyrazino[1,2-d]pyrido [2,3-b][1,4]oxazine-8-carboxamide], the midpoint of inhibition in assay [1], the IC50, lay at 30200 nM. In assay [1], `CN(C(=O)c1ccc2c(n1)OC[C@H]1CNCCN21)C1CCC(=O)NC1=O` (stereo partly drawn) [Compound B20, (4aR)-N-(2,6-dioxopiperidin-3-yl)-N-methyl-1,2,3,4,4a,5-hexahydropyrazino[1,2-d]pyrido[2,3-b][1,4]oxazine-8-carboxamide] showed a half-maximal inhibitory concentration (IC50) of 17500 nM. Against the preceding molecule, the IC50 is about 1.7-fold lower. In turn, `CN(C(=O)c1ccc2c(c1)OC[C@H]1CNCCN21)C1CCC(=O)NC1=O` (stereo partly drawn) [Compound B21, (4aR)—N-(2,6-dioxopiperidin-3-yl)-N-methyl-1,2,3,4,4a,5-hexahydrobenzo[b]pyrazino[1,2-d][1,4]oxazine-8-carboxamide] registered an IC50 in assay [1] of 4600 nM.

Take `O=C1CC[C@H](NC(=O)c2ccc3c(c2)OC[C@H]2CNCCN32)C(=O)N1` [Compound B22, (R)—N—((S)-2,6-dioxopiperidin-3-yl)-1,2,3,4,4a,5-hexahydrobenzo[b]pyrazino[1,2-d][1,4]oxazine-8-carboxamide]: the concentration for half-maximal inhibition (IC50) in assay [1] came out at 23000 nM. With `O=C1CC[C@H](NC(=O)c2ccc3c(c2)OC[C@@H]2CNCCN32)C(=O)N1` [Compound B23, (S)—N—((S)-2,6-dioxopiperidin-3-yl)-1,2,3,4,4a,5-hexahydrobenzo[b]pyrazino[1,2-d][1,4]oxazine-8-carboxamide], in assay [1], the IC50 was determined as 25000 nM. Molecule `CN(C(=O)c1ccc2c(c1)OC[C@@H]1CNCCN21)C1CCC(=O)NC1=O` (stereo partly drawn) [Compound B24, (4aS)—N-(2,6-dioxopiperidin-3-yl)-N-methyl-1,2,3,4,4a,5-hexahydrobenzo[b]pyrazino[1,2-d][1,4]oxazine-8-carboxamide] showed an IC50 in assay [1] of 3400 nM.

On to `CCN1CCN2c3ccc4c(c3OC[C@H]2C1)CN([C@H]1CCC(=O)NC1=O)C4=O` [Compound C8, (S)-3-((R)-7-ethyl-1-oxo-1,3,5,5a,6,7,8,9-octahydro-2H-pyrazino[1′,2′:4,5][1,4]oxazino[2,3-e]isoindol-2-yl)piperidine-2,6-dione], for which 470 nM corresponded to half-maximal inhibition in assay [1] (IC50). This IC50 is about 7.2-fold lower than that of the molecule before. On the same count and under the same terms, the result for `CC(=O)N1CCN2c3ccc4c(c3OC[C@H]2C1)CN([C@H]1CCC(=O)NC1=O)C4=O` [Compound C9, (S)-3-((R)-7-acetyl-1-oxo-1,3,5,5a,6,7,8,9-octahydro-2H-pyrazino[1′,2′:4,5][1,4]oxazino[2,3-e]isoindol-2-yl)piperidine-2,6-dione] reads 180 nM; that for `CC(=O)N1CCN2c3ccc4c(c3OC[C@@H]2C1)CN([C@H]1CCC(=O)NC1=O)C4=O` [Compound C10, (S)-3-((S)-7-acetyl-1-oxo-1,3,5,5a,6,7,8,9-octahydro-2H-pyrazino[1′,2′:4,5][1,4]oxazino[2,3-e]isoindol-2-yl)piperidine-2,6-dione], 200 nM; that for `O=C1CC[C@H](N2Cc3c(ccc4c3OC[C@@H]3CN(Cc5ccc(C(F)F)cc5)CCN43)C2=O)C(=O)N1` [Compound C11, (S)-3-((S)-7-(4-(difluoromethyl)benzyl)-1-oxo-1,3,5,5a,6,7,8,9-octahydro-2H-pyrazino[1′,2′:4,5][1,4]oxazino[2,3-e]isoindol-2-yl)piperidine-2,6-dione], 90 nM. In assay [1], `O=C1CC[C@H](N2Cc3c(ccc4c3OC[C@@H]3CN(Cc5ccc(F)c(F)c5)CCN43)C2=O)C(=O)N1` [Compound C12, (S)-3-((S)-7-(3,4-difluorobenzyl)-1-oxo-1,3,5,5a,6,7,8,9-octahydro-2H-pyrazino[1′,2′:4,5][1,4]oxazino[2,3-e]isoindol-2-yl)piperidine-2,6-dione] gave a half-maximal inhibitory concentration (IC50) of 240 nM.

In assay [1], `O=C1CC[C@H](N2Cc3c(ccc4c3OC[C@@H]3CN(Cc5ccc(F)cc5Cl)CCN43)C2=O)C(=O)N1` [Compound C13, (S)-3-((S)-7-(2-chloro-4-fluorobenzyl)-1-oxo-1,3,5,5a,6,7,8,9-octahydro-2H-pyrazino[1′,2′:4,5][1,4]oxazino[2,3-e]isoindol-2-yl)piperidine-2,6-dione] showed a half-inhibitory concentration (IC50) of 90 nM. Take `O=C1CCC(N2Cc3cc4c(cc3C2=O)OC[C@@H]2CN(Cc3ccc(F)cc3)CCN42)C(=O)N1` (stereo partly drawn) [Compound C19, 3-((S)-3-(4-fluorobenzyl)-8-oxo-1,2,3,4,4a,5,8,10-octahydro-9H-pyrazino[1′,2′:4,5][1,4]oxazino[2,3-f]isoindol-9-yl)piperidine-2,6-dione]: in assay [2] (read-out: IKZF2 degradation DC50, Jurkat-IKZF2-HiBiT cells, 24 hours), the 50% degradation concentration (DC50) was greater than 2000 nM. Besides, the Dmax in assay [2] (read-out: IKZF2 degradation Dmax (%)) came to 0%. In addition, the IC50 in assay [1] was 330 nM.

For orientation: IC50 means the concentration needed to halve the response being measured. In general, DC50 refers to the concentration giving 50% degradation. For orientation: Dmax means the largest share of the target that was removed.

For the origin of these results see patent US20260265271A1, “Cereblon Ligands and Uses Thereof” (REGENTS OF THE UNIVERSITY OF MICHIGAN, priority 2022, published 2026).
